Test results: patent publication US20200390722A1, “COMPOSITIONS AND METHODS FOR THE REMOVAL OF EAR WAX” (Specialty Drug and Device, LLC, priority 2016, published 2020)

Tests used:
[1] = Test-tube comparison of SFA (F6H8) and common remedies on about 100 mg dog cerumen (Example 2); set-up: key to Effects on Ear Wax (Cerumen) Samples: NC, No Change; BP, Bubbles Produced; SG, Softening; FD, Fully Dispersed; settings: for Effects on Ear Wax (Cerumen) Samples: Dog; for Visible changes to ear wax samples (in words): dog, 30 seconds with gentle agitation
Description: (§1) Approximately 100 mg of human ear wax was weighed into each of four small test tubes and numbered 1-4. In a second series, approximately 100 mg of animal cerumen from dogs was placed into four different test tubes and numbered 5-8. About 1 ml of the following material was then added to the respective dishes as follows: (1) to tubes #1 and 5, F6H8; (2) to tubes #2 and 6, hydrogen peroxide, 3%; (3) to tubes #3 and 7, carbamide peroxide, 6.5% (Murine Earwax Removal Drops); and (4) to tubes #4 and 8, sodium bicarbonate, 5% (prepared by dissolved 5 grams of sodium bicarbonate in 100 ml of distilled water. Results of these studies are presented in Table 1, below.

[2] = Test-tube comparison of SFA (F6H8) and common remedies on about 100 mg human ear wax (Example 2); set-up: key to Effects on Ear Wax (Cerumen) Samples: NC, No Change; BP, Bubbles Produced; SG, Softening; FD, Fully Dispersed; settings: for Effects on Ear Wax (Cerumen) Samples: Human; for Visible changes to ear wax samples (in words): human, 30 seconds with gentle agitation
Description: as §1

[3] = Cotton bud laden with dog ear wax swirled through about 1 ml F6H8 (initial studies, Example 1); settings: dog cerumen on cotton bud swirled or shaken in F6H8; hair particles etc. not dissolved
Description: (§2) In these studies, which are reflected below in Table 1, samples of ear wax were collected on cotton buds from animals or humans. A portion of each sample was placed into a small tube containing an SFA (F6H8) and gently shaken.
(§3) The invention is based in substantial part upon initial studies that provided surprising results. A small quantity of F6H8 semi-fluorinated alkane was placed into each of 5 test tubes. Samples of cerumen from animal or human ears were collected on cotton buds. Sufficient ear wax was collected that quantities of the material were visible on cotton buds used to harvest the materials. Separate cotton buds were used to collect cerumen from four dogs and two humans. In a step-wise manner, one cotton bud, laden with ear wax, was gently swirled through a single test tube containing an aliquot of F6H8 SFA. The study was repeated three times for cotton buds with ear wax from dogs and a second series of two tests, as previously described, were carried-out with cotton buds laden with human cerumen. […] Importantly, in the study the cerumen was dissolved by the SFA but the other matter (hair particles, etc.) were not dissolved. […] Such products include MURINE® Ear Drops, DEBROX® Earwax Removal, Flents Earwax Remover, and CERUMENEX® and also includes patents for compositions containing glycerin, glycols, peroxide plus urea and cyclodextrin containing compositions. […]

accumulation of ear wax [4] = test: Prophylaxis to prevent or retard accumulation of ear wax, one human (Example 4); format: in vivo
Description: (§4) The effectiveness of F6H8 as a prophylaxis to prevent or retard accumulation of ear wax was evaluated in one human and one dog. The ear canal of the person and the canine were cleaned thoroughly prior to the evaluation of prophylaxis with SFA. Then, on a regular basis (five of seven days on average), 20-25 ul of F6H8 were applied to a cotton bud and the right ear only of each subjects was gently swabbed for about 15 seconds. In each instance, the contralateral ear served as a control in this study. […] Visual observation was confirmed by using a clean cotton bud to swab each ear of both subjects for 10-15 seconds.

accumulation of ear wax [5] = test: Prophylaxis to prevent or retard accumulation of ear wax, one dog (Example 4); format: in vivo
Description: as §4

[6] = Cotton bud laden with human ear wax swirled through about 1 ml F6H8 (initial studies, Example 1); settings: human cerumen on cotton bud swirled or shaken in F6H8; hair particles etc. not dissolved
Description: as §2, §3

[7] = 30 Seconds, about 1 ml on approx. 100 mg cerumen, gentle agitation
[8] = 30 Seconds, about 1 ml on approx. 100 mg ear wax, gentle agitation
[9] = 20-25 ul on cotton bud, about five of seven days, end of three month trial
[10] = swab 10-15 seconds at end of three month trial

SMILES	Effects on Ear Wax (Cerumen) Samples ([1]; 5 Minutes)	Effects on Ear Wax (Cerumen) Samples ([1]; 15 Minutes)	Effects on Ear Wax (Cerumen) Samples [1, 7]	Visible changes to ear wax samples (in words) [1]	Effects on Ear Wax (Cerumen) Samples ([2]; 5 Minutes)	Effects on Ear Wax (Cerumen) Samples ([2]; 15 Minutes)	Effects on Ear Wax (Cerumen) Samples [2, 8]	Visible changes to ear wax samples (in words) [2]	Dissolution of cerumen from the ear wax sample (in words) [3]	Visual observation of treated right ear vs untreated contralateral ear (accumulation of ear wax [4]; [9])	Ear wax collected by clean cotton bud from treated right ear vs untreated left ear (accumulation of ear wax [4]; [10])	Visual observation of treated right ear vs untreated contralateral ear (accumulation of ear wax [5]; [9])	Ear wax collected by clean cotton bud from treated right ear vs untreated left ear (accumulation of ear wax [5]; [10])	Dissolution of cerumen from the ear wax sample (in words) [6]
OO [Hydrogen Peroxide, 3%, hydrogen peroxide]	BP	SG and BP,	NC	failed to produce visible changes	BP	SG and BP,	NC	failed to produce visible changes						
CCCCCCCCC(F)(F)C(F)(F)C(F)(F)C(F)(F)C(F)(F)C(F)(F)F [SFA (F6H8)]	FD	FD	FD		FD	FD	FD		dissolved completely	visibly cleaner and contained less ear wax and associated hair and other debris	collected less ear wax	visibly cleaner and contained less ear wax and associated hair and other debris	collected less ear wax	dissolved completely
O=C([O-])O.[Na+] [Sodium Bicarbinate, 5%, sodium bicarbonate]	NC	NC	NC	failed to produce visible changes	NC	NC	NC	failed to produce visible changes						
